Assay results from US7294618B2, “Glucopyranosyloxypyrazole derivatives and medicinal use thereof” (Kissei Pharmaceutical Co., Ltd., priority 2001, dated 2007).

How the values were obtained:
human SGLT2 = target: T1, human SGLT2 (Homo sapiens, UniProt P31639, I433V); experiment: Assay for inhibitory effect on human SGLT2 activity (uptake of methyl-α-D-glucopyranoside); type: cell-based; settings: for IC50: COS-7 cells expressing transiently human SGLT2, uptake of methyl-α-D-(U-14C)glucopyranoside, 37° C., 2 hours
T1 construct: expressed in transfected cells; host or cells: COS-7 cells (RIKEN CELL BANK RCB0539), transient, electroporation of KL29
T1 sequence (P31639 1-672 I433V): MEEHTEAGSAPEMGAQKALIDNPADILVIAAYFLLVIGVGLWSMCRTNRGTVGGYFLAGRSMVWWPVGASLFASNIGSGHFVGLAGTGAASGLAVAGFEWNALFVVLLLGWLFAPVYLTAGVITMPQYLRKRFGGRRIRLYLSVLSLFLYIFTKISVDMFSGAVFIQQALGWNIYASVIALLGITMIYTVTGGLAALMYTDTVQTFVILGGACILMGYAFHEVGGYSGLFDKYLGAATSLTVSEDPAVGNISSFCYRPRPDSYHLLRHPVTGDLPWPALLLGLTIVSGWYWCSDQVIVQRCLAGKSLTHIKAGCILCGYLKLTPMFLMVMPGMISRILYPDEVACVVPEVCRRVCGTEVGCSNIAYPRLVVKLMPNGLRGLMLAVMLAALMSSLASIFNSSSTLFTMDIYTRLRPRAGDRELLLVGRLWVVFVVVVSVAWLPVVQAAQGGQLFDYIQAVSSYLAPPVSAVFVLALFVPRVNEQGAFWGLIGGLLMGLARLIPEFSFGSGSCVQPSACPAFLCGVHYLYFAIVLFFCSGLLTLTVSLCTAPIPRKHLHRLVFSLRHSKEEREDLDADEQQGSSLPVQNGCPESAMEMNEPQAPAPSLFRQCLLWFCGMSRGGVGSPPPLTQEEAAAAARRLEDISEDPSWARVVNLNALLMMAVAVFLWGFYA
Protocol: • Assay for Inhibitory Effect on Human SGLT2 Activity • 1) Construction of the Plasmid Vector Expressing Human SGLT2
Preparation of the cDNA library for PCR amplification was performed by reverse transcription of a total RNA deprived from human kidney (Ori gene) with oligo dT as the primer, using SUPERSCRIPT Preamplification System (Gibco-BRL: LIFE TECHNOLOGIES). The DNA fragment coding for human SGLT2 was amplified by the PCR reaction, in which the human kidney cDNA library described above was used as the template and the following oligo nucleotides 0702F and 0712R, presented as Sequence Numbers 1 and 2 respectively, were used as the primers. The amplified DNA fragment was ligated into pCR-Blunt (Invitrogen), a vector for cloning, according to standard method of the kit. The Escherichia coli HB101 was transformed according to usual method and then selection of the transformants was performed on the LB agar medium containing 50 μg/mL of kanamycin. After plasmid DNA was extracted and purified from the one of the transformants, amplifying of the DNA fragment coding for human SGLT2 was performed by the PCR reaction, in which the following oligo nucleotides 0714F and 0715R, presented as Sequence Numbers 3 and 4 respectively, were used as the primers. The amplified DNA fragment was digested with restriction enzymes, Xho I and Hind III, and then purified with Wizard Purification System (Promega). This purified DNA fragment was inserted at the corresponding restriction sites of pcDNA3.1 (−) Myc/His—B (Invitrogen), a vector for expressing of fusion protein. The Escherichia coli HB101 was transformed according to usual method and then selection of the transformant was performed on the LB agar medium containing 100 μg/mL of ampicillin. After plasmid DNA was extracted and purified from this transformant, the base sequence of the DNA fragment inserted at the multi-cloning sites of the vector pcDNA3. 1 (−) Myc/His—B was analyzed. […] Sequentially, a clone in which valine is substituted for isoleucine-433 was obtained. This plasmid vector expressing human SGLT2 in which the peptide presented as Sequence Number 5 is fused to the carboxyl terminal alanine residue was designated KL29.
• 2) Preparation of the Cells Expressing Transiently Human SGLT2
KL29, the plasmid coding human SGLT2, was transfected into COS-7 cells (RIKEN CELL BANK RCB0539) by electroporation. Electroporation was performed with EC100 Electroporater (E-C APPARATUS CORPORATION) under the condition: 400 V, 1260 μF, 3.2×10^6 cells of COS-7 cell and 20 μg of KL29 in 800 μL of OPTI-MEM I medium (Gibco-BRL: LIFE TECHNOLOGIES) in the 0.4 cm type cuvette. After the gene transfer, the cells were harvested by centrifugation and resuspended with OPTI-MEM I medium (3.2 mL/cuvette). […]

[1] = normal mice; J. Med. Chem., Vol. 39, pp. 3920-3928 (1996); cited from earlier work

In the case of `CCc1ccc(Cc2c(O[C@@H]3O[C@H](CO)[C@@H](O)[C@H](O)[C@H]3O)nn(-c3ccccc3)c2C)cc1` [Example 18, 4-[(4-Ethylphenyl)methyl]-3-(β-D-glucopyranosyloxy)-5-methyl-1-phenyl-1H-pyrazole], the IC50 (human SGLT2) is reported as 270 nM.

`Cc1c(Cc2ccc(OC(C)C)cc2)c(O[C@@H]2O[C@H](CO)[C@@H](O)[C@H](O)[C@H]2O)nn1-c1ccccc1` [Example 20, 3-(β-D-Glucopyranosyloxy)-4-[(4-isopropoxyphenyl)methyl]-5-methyl-1-phenyl-1H-pyrazole] showed an IC50 (human SGLT2) of 200 nM.

For `CSc1ccc(Cc2c(C(F)(F)F)[nH][nH]c2=O)cc1` [WAY-123783], the “amount of excreted glucose” value [1] is listed as “increased”, the IC50 (human SGLT2) is listed as > 100000 nM and the “inhibitory activity in human SGLT2” value (human SGLT2; statement in words) is listed as “extremely weak”.
